One compound from paper PMC6428421 (Nature cell biology, 2019) can be followed below.

This test addresses IRAK1 (Homo sapiens, UniProt P51617). Put plainly: KINOMEScan competition kinase-binding assay.

pKd: −log10 of the molar value.

In general, pKd refers to −log10 of the Kd, conventionally taken in molar units. Higher therefore signals a small Kd.

Sequence of IRAK1 (P51617 whole entry): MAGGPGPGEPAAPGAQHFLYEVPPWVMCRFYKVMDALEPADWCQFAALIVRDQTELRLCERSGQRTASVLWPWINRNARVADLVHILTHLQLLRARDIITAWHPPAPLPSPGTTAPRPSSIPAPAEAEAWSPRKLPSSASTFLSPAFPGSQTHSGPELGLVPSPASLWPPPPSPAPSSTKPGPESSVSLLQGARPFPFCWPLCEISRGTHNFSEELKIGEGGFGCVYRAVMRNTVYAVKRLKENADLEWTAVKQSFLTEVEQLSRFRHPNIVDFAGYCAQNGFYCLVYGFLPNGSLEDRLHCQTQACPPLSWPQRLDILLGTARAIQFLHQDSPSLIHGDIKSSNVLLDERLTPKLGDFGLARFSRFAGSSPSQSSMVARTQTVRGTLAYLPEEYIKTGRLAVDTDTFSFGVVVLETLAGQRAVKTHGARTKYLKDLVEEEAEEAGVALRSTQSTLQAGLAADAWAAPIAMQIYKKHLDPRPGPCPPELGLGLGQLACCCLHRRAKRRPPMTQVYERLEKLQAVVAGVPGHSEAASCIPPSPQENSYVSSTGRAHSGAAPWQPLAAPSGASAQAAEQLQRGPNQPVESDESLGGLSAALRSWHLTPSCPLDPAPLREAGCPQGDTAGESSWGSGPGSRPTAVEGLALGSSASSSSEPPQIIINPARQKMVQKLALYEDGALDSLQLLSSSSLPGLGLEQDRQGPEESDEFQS

`COC(=O)Nc1nc2ccc([S+]([O-])c3ccccc3)cc2[nH]1` (stereo not shown) [OXF, oxfendazole] gave a pKd of 5.24.
